Laboratory results published in ChEMBL document CHEMBL5465560, “Selectivity Literature for EUbOPEN Chemogenomic Library” (2024).

Legend:
[1] = Selectivity interaction (KinomeScan (DiscoverX)) EUB0000595a CDK2H; details: at 10 µM
[2] = molecular target: T1, Activin receptor type-1 (Homo sapiens) (UniProt Q04771); experiment: Selectivity interaction (KinomeScan (DiscoverX)) EUB0000666a ACVR1; details: at 10 µM
T1 sequence (whole entry): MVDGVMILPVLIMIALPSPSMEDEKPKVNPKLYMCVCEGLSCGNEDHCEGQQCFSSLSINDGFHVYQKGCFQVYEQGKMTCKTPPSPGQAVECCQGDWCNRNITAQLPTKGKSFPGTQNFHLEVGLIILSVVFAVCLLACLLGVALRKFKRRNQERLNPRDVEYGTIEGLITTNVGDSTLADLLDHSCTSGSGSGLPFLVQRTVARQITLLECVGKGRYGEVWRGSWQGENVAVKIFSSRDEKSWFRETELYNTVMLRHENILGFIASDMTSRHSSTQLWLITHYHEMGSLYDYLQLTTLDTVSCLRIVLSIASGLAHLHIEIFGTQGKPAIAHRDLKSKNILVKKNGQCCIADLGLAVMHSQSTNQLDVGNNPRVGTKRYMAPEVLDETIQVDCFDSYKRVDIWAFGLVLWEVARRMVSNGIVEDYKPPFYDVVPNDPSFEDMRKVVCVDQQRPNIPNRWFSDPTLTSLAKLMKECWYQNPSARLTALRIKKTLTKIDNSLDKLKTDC

[3] = molecular target: Non-receptor tyrosine-protein kinase TYK2 (Homo sapiens, UniProt P29597); experiment: Selectivity interaction (KinomeScan (DiscoverX)) EUB0000666a TYK2; details: at 10 µM
Non-receptor tyrosine-protein kinase TYK2, sequence (P29597 whole entry): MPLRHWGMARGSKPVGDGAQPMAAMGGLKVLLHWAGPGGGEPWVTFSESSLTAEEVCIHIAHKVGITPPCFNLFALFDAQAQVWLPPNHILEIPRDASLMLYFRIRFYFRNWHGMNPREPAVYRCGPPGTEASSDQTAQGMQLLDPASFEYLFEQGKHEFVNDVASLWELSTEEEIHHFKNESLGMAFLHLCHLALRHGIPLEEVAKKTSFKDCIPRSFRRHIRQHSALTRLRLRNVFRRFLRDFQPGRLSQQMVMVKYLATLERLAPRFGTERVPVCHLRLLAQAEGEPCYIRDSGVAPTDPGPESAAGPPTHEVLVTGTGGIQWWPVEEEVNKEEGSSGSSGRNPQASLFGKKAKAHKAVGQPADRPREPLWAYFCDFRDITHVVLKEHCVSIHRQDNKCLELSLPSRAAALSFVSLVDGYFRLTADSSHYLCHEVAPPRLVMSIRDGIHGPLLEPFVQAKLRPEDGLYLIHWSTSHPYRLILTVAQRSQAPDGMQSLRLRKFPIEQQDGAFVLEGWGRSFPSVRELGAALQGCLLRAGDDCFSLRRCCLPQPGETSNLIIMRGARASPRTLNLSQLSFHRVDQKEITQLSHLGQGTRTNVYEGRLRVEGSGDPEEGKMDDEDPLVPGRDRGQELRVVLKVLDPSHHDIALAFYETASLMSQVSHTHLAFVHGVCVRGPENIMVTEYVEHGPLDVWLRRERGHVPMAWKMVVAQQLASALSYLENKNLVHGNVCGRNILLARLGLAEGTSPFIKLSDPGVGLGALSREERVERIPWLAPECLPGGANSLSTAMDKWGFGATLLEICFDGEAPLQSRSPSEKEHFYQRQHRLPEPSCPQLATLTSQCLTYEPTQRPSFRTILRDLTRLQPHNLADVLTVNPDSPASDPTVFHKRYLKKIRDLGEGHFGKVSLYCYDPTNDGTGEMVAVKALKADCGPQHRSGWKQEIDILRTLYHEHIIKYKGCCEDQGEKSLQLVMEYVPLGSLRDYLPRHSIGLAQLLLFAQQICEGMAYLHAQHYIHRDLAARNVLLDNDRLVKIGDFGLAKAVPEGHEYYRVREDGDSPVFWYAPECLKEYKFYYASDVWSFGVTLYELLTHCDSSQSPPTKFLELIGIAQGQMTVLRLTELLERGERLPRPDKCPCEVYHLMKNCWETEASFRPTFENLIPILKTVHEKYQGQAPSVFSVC

[4] = molecular target: T2, Serine/threonine-protein kinase DCLK1 (Homo sapiens) (UniProt O15075); details: at 10 µM
T2 sequence (whole entry): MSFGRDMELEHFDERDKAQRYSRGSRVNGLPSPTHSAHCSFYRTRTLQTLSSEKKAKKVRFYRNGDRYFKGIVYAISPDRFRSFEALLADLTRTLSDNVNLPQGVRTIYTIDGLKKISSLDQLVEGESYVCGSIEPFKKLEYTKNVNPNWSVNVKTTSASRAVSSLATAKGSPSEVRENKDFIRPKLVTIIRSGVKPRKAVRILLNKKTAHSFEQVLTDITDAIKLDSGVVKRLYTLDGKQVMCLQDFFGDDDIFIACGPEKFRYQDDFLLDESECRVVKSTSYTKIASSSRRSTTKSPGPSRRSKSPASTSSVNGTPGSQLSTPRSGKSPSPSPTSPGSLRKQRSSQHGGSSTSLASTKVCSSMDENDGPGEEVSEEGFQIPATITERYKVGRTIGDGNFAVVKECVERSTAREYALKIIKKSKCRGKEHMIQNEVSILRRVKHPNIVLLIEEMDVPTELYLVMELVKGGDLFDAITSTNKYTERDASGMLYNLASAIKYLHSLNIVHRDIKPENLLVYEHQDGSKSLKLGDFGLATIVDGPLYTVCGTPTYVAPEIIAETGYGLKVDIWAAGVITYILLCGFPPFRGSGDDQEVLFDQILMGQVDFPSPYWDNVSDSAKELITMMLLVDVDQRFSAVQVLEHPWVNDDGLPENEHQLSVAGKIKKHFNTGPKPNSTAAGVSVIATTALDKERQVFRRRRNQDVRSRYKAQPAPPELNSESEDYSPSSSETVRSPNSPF

[5] = molecular target: T3, Hormonally up-regulated neu tumor-associated kinase (Homo sapiens) (UniProt P57058); details: at 10 µM
T3 sequence (whole entry): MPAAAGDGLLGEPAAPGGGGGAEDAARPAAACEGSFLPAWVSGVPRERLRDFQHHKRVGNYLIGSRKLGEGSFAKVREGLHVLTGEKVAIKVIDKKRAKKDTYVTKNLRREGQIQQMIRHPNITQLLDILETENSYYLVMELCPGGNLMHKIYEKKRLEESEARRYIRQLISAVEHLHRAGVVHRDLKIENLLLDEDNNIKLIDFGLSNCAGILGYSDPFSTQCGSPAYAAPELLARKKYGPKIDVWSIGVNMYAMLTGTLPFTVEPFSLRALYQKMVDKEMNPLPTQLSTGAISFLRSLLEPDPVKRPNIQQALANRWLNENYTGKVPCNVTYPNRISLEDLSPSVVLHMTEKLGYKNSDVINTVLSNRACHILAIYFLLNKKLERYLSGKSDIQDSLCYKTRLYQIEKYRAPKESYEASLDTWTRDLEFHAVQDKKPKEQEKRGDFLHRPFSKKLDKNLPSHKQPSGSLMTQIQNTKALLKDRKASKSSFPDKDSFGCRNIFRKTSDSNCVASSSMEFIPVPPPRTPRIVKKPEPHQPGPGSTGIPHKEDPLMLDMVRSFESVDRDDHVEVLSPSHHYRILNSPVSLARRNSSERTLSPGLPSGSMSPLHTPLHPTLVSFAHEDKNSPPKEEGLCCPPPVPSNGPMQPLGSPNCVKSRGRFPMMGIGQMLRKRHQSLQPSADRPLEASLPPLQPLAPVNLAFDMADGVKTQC

[6] = molecular target: T4, Muscle, skeletal receptor tyrosine-protein kinase (Homo sapiens) (UniProt O15146); experiment: Selectivity interaction (KinomeScan (DiscoverX)) EUB0001049a MUSK; details: at 1 µM
T4 sequence (whole entry): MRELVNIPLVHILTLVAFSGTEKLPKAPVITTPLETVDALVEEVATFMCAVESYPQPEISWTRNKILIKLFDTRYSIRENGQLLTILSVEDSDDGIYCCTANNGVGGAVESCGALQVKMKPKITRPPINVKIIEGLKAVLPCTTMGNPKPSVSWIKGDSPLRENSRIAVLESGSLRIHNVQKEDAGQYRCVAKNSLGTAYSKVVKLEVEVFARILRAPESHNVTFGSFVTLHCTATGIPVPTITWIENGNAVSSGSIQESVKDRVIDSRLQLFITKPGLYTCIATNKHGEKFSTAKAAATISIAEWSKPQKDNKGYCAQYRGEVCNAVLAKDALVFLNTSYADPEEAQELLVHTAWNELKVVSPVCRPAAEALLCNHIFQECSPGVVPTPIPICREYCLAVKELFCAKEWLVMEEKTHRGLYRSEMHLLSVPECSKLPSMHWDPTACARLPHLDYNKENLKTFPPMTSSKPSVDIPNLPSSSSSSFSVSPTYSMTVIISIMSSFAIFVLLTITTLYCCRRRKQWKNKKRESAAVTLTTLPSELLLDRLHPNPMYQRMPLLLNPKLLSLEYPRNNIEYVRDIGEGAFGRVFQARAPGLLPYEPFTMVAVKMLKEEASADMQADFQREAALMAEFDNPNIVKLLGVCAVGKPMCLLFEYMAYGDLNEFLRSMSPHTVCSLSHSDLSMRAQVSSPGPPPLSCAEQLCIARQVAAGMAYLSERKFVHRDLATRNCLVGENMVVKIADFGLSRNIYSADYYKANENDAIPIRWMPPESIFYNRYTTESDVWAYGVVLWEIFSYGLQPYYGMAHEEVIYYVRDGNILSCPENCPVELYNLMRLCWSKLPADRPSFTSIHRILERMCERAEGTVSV

SMILES: COCC(=O)NC/C=C/c1ccc2ncnc(Nc3ccc(Oc4ccc(C)nc4)c(C)c3)c2c1 [CP-724714]
- % of control [1]: 100%

SMILES: O=C(NOC[C@H](O)CO)c1ccc(F)c(F)c1Nc1ccc(I)cc1F
- % of control [2]: 76%
- % of control [3]: 100%

SMILES: Cc1cc([C@@H](C)Nc2ccccc2C(=O)O)c2nc(N3CCOCC3)cc(=O)n2c1 [AZD-6482]
- % of control [4]: 78%
- % of control [5]: 81%

SMILES: COc1cc(Nc2nc(C)cc(-c3cnn4nc(OC)ccc34)n2)cc(C(F)(F)F)c1
- % of control [6]: 100%
